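Compound exposure: 48 hours, 5 concentrations, 96-well plates. TGI: total growth inhibition.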
Legend:
Assay in all cases: NCI tumour cell line growth inhibition, 48 h
[1] = test system: 786-0 renal
[2] = test system: A498 renal
[3] = test system: A549 NSCLC
[4] = test system: ACHN renal
[5] = test system: CAKI-1 renal
[6] = test system: CCRF-CEM leukemia
[7] = test system: COLO 205 colon
[8] = test system: DMS 114 small cell lung
[9] = test system: DMS 273 small cell lung
[10] = test system: EKVX NSCLC
[11] = test system: HCC-2998 colon
[12] = test system: HCT-116 colon
[13] = test system: HCT-15 colon
[14] = test system: HL-60(TB) leukemia
[15] = test system: HOP-18 NSCLC
[16] = test system: HOP-62 NSCLC
[17] = test system: HOP-92 NSCLC
[18] = test system: HT29 colon
[19] = test system: IGROV1 ovarian
[20] = test system: K-562 leukemia
[21] = test system: KM20L2 colon
[22] = test system: LOX IMVI melanoma
[23] = test system: LXFL 529 NSCLC
[24] = test system: M14 melanoma
[25] = test system: M19-MEL melanoma
[26] = test system: MOLT-4 leukemia
[27] = test system: NCI-H23 lung
[28] = test system: NCI-H460 lung
[29] = test system: OVCAR-3 ovarian
[30] = test system: OVCAR-4 ovarian
[31] = test system: OVCAR-8 ovarian
[32] = test system: RPMI-8226 leukemia
[33] = test system: RXF 393 renal
[34] = test system: SF-295 CNS
[35] = test system: SF-539 CNS
[36] = test system: SK-MEL-28 melanoma
[37] = test system: SK-MEL-5 melanoma
[38] = test system: SK-OV-3 ovarian
[39] = test system: SN12C renal
[40] = test system: SNB-19 CNS
[41] = test system: SNB-75 CNS
[42] = test system: SNB-78 CNS
[43] = test system: SW-620 colon
[44] = test system: TK-10 renal
[45] = test system: U251 CNS
[46] = test system: UACC-257 melanoma
[47] = test system: UACC-62 melanoma
[48] = test system: XF 498 CNS
[49] = test system: DLD-1 colon
[50] = test system: KM12 colon
[51] = test system: MALME-3M melanoma
[52] = test system: NCI-H226 lung
[53] = test system: NCI-H522 lung
[54] = test system: UO-31 renal

Measured: TGI

NCc1c(C(N)=O)ncn1Cc1ccccc1
> 100 µM: [1] | [2] | [3] | [4] | [5] | [6] | [7] | [8] | [9] | [10] | [11] | [12] | [13] | [14] | [15] | [16] | [17] | [18] | [19] | [20] | [21] | [22] | [23] | [24] | [25] | [26] | [27] | [28] | [29] | [30] | [31] | [32] | [33] | [34] | [35] | [36] | [37] | [38] | [39] | [40] | [41] | [42] | [43] | [44] | [45] | [46] | [47] | [48]

O=C(O)c1ccccc1N=Nc1ccc2oc(=O)c(C(=O)Nc3ccccc3)cc2c1
97.7 µM: [16]
98.3 µM: [41]
76.8 µM: [37]
70.4 µM: [29]
59.4 µM: [46]
70.3 µM: [51]
66.9 µM: [14]
> 100 µM: [1] | [3] | [4] | [6] | [7] | [49] | [9] | [10] | [12] | [13] | [15] | [18] | [19] | [20] | [50] | [22] | [24] | [25] | [26] | [52] | [27] | [28] | [53] | [31] | [32] | [33] | [34] | [35] | [36] | [38] | [39] | [40] | [43] | [44] | [45] | [54] | [48]
83.9 µM: [21]
76.9 µM: [8]
71.1 µM: [47]

— PubChem BioAssay (NCI)
